We go through 4 compounds from patent publication EP2687509A2, “Dicarboxyimides derivatives for use in the treatment of cancer” (Warszawski Uniwersytet Medyczny, priority 2012, dated 2014).

Each structure is given as a SMILES string. Like-named read-outs stand apart in the source and are kept apart here.

Data set [1] has as its system K562 cells. The following applies: against K562 cells; for comparison; cited from earlier work.
For data set [2], the system named is tumor cell lines (leukemia, breast cancer, neuroblastoma, colorectal cancer, liver, prostate, lung). The following applies: 13 tested tumor cell lines; cited from earlier work.
Data set [3] deals with caspase-6. The following applies: MOLT-4 cells; 5µM; after 24 hours of incubation; cited from earlier work.
Data set [4] relates to peripheral blood lymphocytes. The following applies: normal cells (peripheral blood lymphocytes); cited from earlier work.
Data set [5] relates to caspase-3. The following applies: MOLT-4 cells; 5µM; after 12 hours of incubation; cited from earlier work.
For data set [6] the following is noted: higher than for the lead compound amonafide; cited from earlier work.
For data set [7] the following is noted: mouse, in vivo; cited from earlier work.
Data set [8] concerns murine leukemia, breast cancer and orthotopic models of non-small cell lung cancer and pancreatic cancer. The following applies: cited from earlier work.
Data set [9] deals with HUVEC cells. Briefly: MTT cytotoxicity assay, HUVEC cells. The following applies: Homo sapiens, 48 h incubation, * = compound precipitated at 1 mM from cell cultures. Type of data set: cell-based. The procedure: (§1) A series of dicarboximides derivatives (table 1) was tested for cytotoxic properties against four cell lines. The tests were conducted by means of MTT assay where yellow tetrazole salt was processed by the dehydrogenases in mitochondria of live cells into violet formazan. The following cell lines were used:
- HUVEC cells (normal human endothelial cells).
(§2) 1. HeLa, K562, HL60, HUVEC cells in an amount of 7 thousand cells / well (in 200 µL medium) were seeded in 96-well plates. Cells were incubated overnight in an incubator (37°C, 5% CO2)
(§3) 2. Test compounds were dissolved in DMSO and added in an amount of 2µL to the surface of the cells to give the following final concentrations in the cell culture (1 mM, 10 µm, 100 nM, 1 nM). As a control, cells exposed to 1% DMSO were used.
(§4) 3. Cytotoxicity of the test compounds was evaluated by MTT test. After 48-hour incubation of HeLa, K562, HL60 or HUVEC cells with the test compounds, MTT (5mg/mL) was added in an amount of 25µL/well. MTT, a yellow tetrazolium salt was reduced to purple formazan by mitochondrial dehydrogenases of living cells. The amount of formazan could be determined spectrophotometrically and was proportional to the number of live cells. Cells were incubated with MTT for 2 hours in an incubator (37°C, 5% CO2). Next, lysis buffer containing SDS and DMF was added (95µL/well) to each well and incubated overnight at 37°C, 5% CO2.
(§5) 4. The plates were analyzed by reading the absorbance at a wavelength of 570 nm and 650 nm using the plate-reader Fluostar Omega. The measured absorbance at 570 nm is proportional to the number of living cells. IC50 values (concentration of compound causing 50% cell mortality) were read from the charts by interpolation to 50% cell survival.
Background: Tetrazolium dyes change colour on reduction, which living cells bring about.

Data set [10] deals with HeLa cells. Briefly: MTT cytotoxicity assay, HeLa cells. Type of data set: cell-based. The following applies: Homo sapiens, 48 h incubation, * = compound precipitated at 1 mM from cell cultures. The procedure:
as §1
- HeLa cells (uterine cervix cancer)
as §2, §3, §4, §5

Data set [11] concerns caspase 3 and 7. Description: Apo-ONE Homogeneous Caspase-3/7 Assay in K562 cells. It is filed as cell-based, human. The following applies: 5 x IC50 (a5: 10 µM), 18 hours, compared with K562 and K562+DMSO, Fig. 1. The procedure:
The observed cytotoxicity of compounds a3-7 was tested for its origin, i.e. induction of necrosis or apoptosis in the K562 cells of chronic myelogenous leukaemia.
K562 cells in RPMI 1640 medium containing 10% fetal calf serum and antibiotics were seeded on 96-well plate in an amount of 20x10^3 cells / well. Cells were cultured for 24 hours in an incubator (5% CO2, 37°C).
Compounds a3-a7 were dissolved in DMSO and added to the cell medium; final concentration in the cell culture was 5 x IC50. Cells cultured in the presence of 1% DMSO served as a negative control. Cells grown in the presence of 1 µM staurosporin (a strong inducer of apoptosis) served as a positive control. […]
The activity of caspase 3 and 7 was determined by means of Apo-ONE® Homogeneous Caspase-3/7 Assay (Promega, Madison, WI, USA), in compliance with manufacturer's guidelines. Cells were lysed and incubated with a profluorescent substrate for caspases for 1.5 hours at room temperature. Due to proteolytic activity of caspases, the profluorescent substrate was converted into a fluorescent product the amount of which could be determined by measurement of fluorescence intensity.
The fluorescence intensity in each well was measured using a plate reader Fluostar Omega (BMG-Labtech, Germany) at an excitation wavelength of 485 nm and emission 520 nm. The intensity of fluorescence is proportional to the activity of caspase 3 and 7 in the sample.

Data set [12] deals with HL60 cells. Briefly: MTT cytotoxicity assay, HL60 cells. Type of data set: cell-based. The following applies: Homo sapiens, HL-60, 48 h, 48 h incubation. The procedure:
as §1
- HL60 cells (human acute myelogenous leukaemia)
as §2, §3, §4, §5

Data set [13] concerns K562 cells. Description: MTT cytotoxicity assay, K562 cells. It is filed as cell-based, human. The following applies: 48 h incubation, * = compound precipitated at 1 mM from cell cultures. The procedure:
as §1
- K562 cells (human chronic myelogenous leukaemia) and
as §2, §3, §4, §5

The term IC50 denotes the concentration that inhibits the measured activity by half. As to `N.N.[Cl][Pt][Cl]` [cis-platinum], in [1], the IC50 entry was “several to several dozens”.
Regarding `O=C1c2cccc3c([N+](=O)[O-])ccc(c23)C(=O)N1CCCO` [6-nitro-2-(3-hydroxypropyl)-1H-benz[de]izoquinolino-1,3-dione], the “tested tumor cell lines to which the compound was toxic” value in data set [2] is recorded as 8 of 13. The caspase-6 activity result in [3] is “significant increase”. The half-maximal inhibitory concentration (IC50) in [4] is 273 µM. In data set [5], the caspase-3 activity result is recorded as “significant increase”.
As for `CN(C)CCN1C(=O)c2cccc3cc(NC(=O)NC(=O)C(Cl)(Cl)Cl)cc(c23)C1=O` [UNBS3157, 2,2,2-trichloro-N-({2-[2-(dimethylamino)ethyl]-1,3-dioxo-2,3-dihydro-1H-benzo[de]izoquinolino-5-ylo}carbamoylo)acetamide], the “maximum tolerated dose relative to amonafide” value in [6] is “about 4 x”. For the same compound, the haemotoxicity entry in data set [7] was “no haemotoxicity”. Further, the “activity in in vivo models compared to amonafide” value in data set [8] is “enhanced activity”.
Turning to `CCN(CC)CCN1C(=O)C2C(C1=O)C1(CC)C(=O)C2(CC)C(c2ccccc2)=C1c1ccccc1` (centres unmarked) [a4], the IC50 is above 1000 µM in data set [9]; above 1000 µM in [10]; 1 to 10 µM in data set [12]; above 1000 µM in data set [12] (* = compound precipitated at 1 mM from cell cultures); 4.5 µM in data set [13]. Further, in data set [11], the “activity of caspase 3 and 7” value is “do not increase”.
